# Assay results published in patent publication US12589097B2, “Apilimod compositions and methods of use” (ORPHAI THERAPEUTICS INC., priority 2023, dated 2026).
# How the values were obtained:
# [1] = test system: Glycoprotein Nonmetastatic Melanoma Protein B (GPNMB); experiment: SOMAscan aptamer-based proteomics of plasma from patients dosed with apilimod (NCT02594384); assay type: in vivo, human; conditions: pre-dose vs day 15 after 14 days of dosing, FDR<0.05
# From the text: A SOMAscan™ platform was used to identify analytes that were changed in the plasma of patients upon apilimod dosing. SOMAscan™ is an aptamer-based proteomics assay from SomaLogic capable of measuring 1,305 human protein analytes in serum or plasma with high sensitivity and specificity. Plasma from patients enrolled in the clinical trial designated NCT02594384 was collected pre-dose (before the first administration of apilimod) and after 14 days of dosing with apilimod, on day 15. Using differential protein analysis with a paired experimental design for linear models of microarray data using the “Limma R” software package described by Ritchie et al. in Nucleic Acids Research, 43(7), pp. e47 (2015).
# [2] = Body weight (percent baseline) in TDP-43 (rNLS8) mouse model of ALS; assay type: in vivo; conditions: Group B (60 mg/kg p.o. BID) vs vehicle Group A
# Method: (§1) For the evaluation, all mice received either apilimod dimesylate (60 mg/kg)) or vehicle two times daily for 24 days, starting at […] of age, 3 days prior to disease initiation. Both groups had routine clinical assessments 3 times per week. Twenty-four (24) total mice were assigned to one of two groups, as outlined in Table 1. […]
# (§2) Animals were weighed at the beginning of the experiment, and then, for dosing, daily for the duration of the study. Animals were also monitored daily, and clinical assessments were performed three times per week (Mondays, Wednesday, and Fridays) from disease initiation to the end of the study. Each clinical assessment day, animals were assessed for signs of motor dysfunction, including signs of tremor, hindlimb clasping, hindlimb paralysis, grill agility, and overall well-being. Each of these signs were scored on a scale of 0-3: normal/no dysfunction (0), mild (1), moderate (2), or severe (3), as summarized in Table 2. […]
# (§3) All summary statistics are presented as mean and standard deviation. […] The data were first assessed for normality with a normal probability plot, followed by assessment of homogeneity of variance, if appropriate. […]
# [3] = test system: TDP-43 (rNLS8) mouse model of ALS; experiment: Clinical assessment of motor dysfunction in TDP-43 (rNLS8) mouse model of ALS; assay type: in vivo; conditions: body weight and clinical scores taken together
# Method: as §1, §2, §3
# Progression of clinical scores (also herein “severity score”) throughout the study, following removal of Full DOX was evaluated. […]
# [4] = Observation of adverse effects of treatment in rNLS8 mice; assay type: in vivo, mouse; conditions: 60 mg/kg p.o. BID for 24 days
# Method: For the evaluation, all mice received either apilimod dimesylate (60 mg/kg)) or vehicle two times daily for 24 days, starting at […] of age, 3 days prior to disease initiation. Both groups had routine clinical assessments 3 times per week. Twenty-four (24) total mice were assigned to one of two groups, as outlined in Table 1.
# Animals were weighed at the beginning of the experiment, and then, for dosing, daily for the duration of the study. Animals were also monitored daily, and clinical assessments were performed three times per week (Mondays, Wednesday, and Fridays) from disease initiation to the end of the study. Each clinical assessment day, animals were assessed for signs of motor dysfunction, including signs of tremor, hindlimb clasping, hindlimb paralysis, grill agility, and overall well-being. Each of these signs were scored on a scale of 0-3: normal/no dysfunction (0), mild (1), moderate (2), or severe (3), as summarized in Table 2.
# Apilimod dimesylate was received at ambient temperature in a 50 mL tube and protected from light. The treatments were administered p.o. twice per day (BID) for a period of 24 days Each daily dose was performed within the same ˜2-hour time frame, with approximately 6 hours between doses.
smiles,measurement,setting,value
Cc1cccc(/C=N/Nc2cc(N3CCOCC3)nc(OCCc3ccccn3)n2)c1 [apilimod],average fold change of plasma (shed) GPNMB,[1],4 fold
same,percent baseline body weight vs vehicle at every clinical assessment visit,[2],tendency for higher percent baseline body weight
same,functional deficits in TDP-43 ALS animal model,[3],ameliorates functional deficits
same,adverse effects of treatment,[4],No adverse effects
